For five compounds, IC50, ΔTm and Emax results are on record in patent publication US20230105212A1, “BIPHENYL DERIVATIVE INHIBITOR, PREPARATION METHOD THEREFOR AND USE THEREOF” (SHANGHAI HANSOH BIOMEDICAL CO., LTD., priority 2020, published 2023).

As usually defined, the ΔTm is the shift of the melting midpoint relative to a reference.

Assay [1] has as its target T1, human PD-1/PD-L1 binding (Homo sapiens, UniProt Q9NZQ7).
T1 construct: PD-L1-His protein (19 to 238 amino acids) (Abcam #ab167713); purchased Abcam (PD-L1-His); R&D (PD-1-Fc) ab167713; 1086-PD
Description: Inhibition of human PD-1/PD-L1 binding (TR-FRET/HTRF). The conditions noted are these: TR-FRET, PD-L1-His and PD-1-Fc; read-out: PD-1/PD-L1 binding IC50. In a few lines: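 PD-L1-His (aa 19–238, diluted to 10 nM) and PD-1-Fc (aa 25–167, diluted to 20 nM) incubated with compounds (10 μM or 1 μM top, 3-fold, 11 doses) 60 min at room temperature, then anti-6HIS Eu cryptate/anti-human IgG-XL665 added for 3 h RT or overnight 4 °C. HTRF 665/620 nm ratio gave inhibition and IC50.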
A general note: Time-resolved FRET reads energy transfer from a long-lived donor to a nearby acceptor.

The target in assay [2] is T2, human PD-L1 protein (Homo sapiens, UniProt Q9NZQ7).
T2 construct: purchased Acro Biosystems PD1-H5229
In words: Thermal shift: melting temperature of PD-L1 protein. Type of assay: binding. To be noted: compound 10 μM, PD-L1 protein 2 μM, Tm minus DMSO vehicle control; read-out: ΔTm (° C.). In a few lines: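 Human PD-L1 at 2 μM final was tested in […], 150 mM NaCl with SYPRO Orange, heated 25→95 °C at 0.03 °C/s in a PCR melt-curve run. Tm was taken per treatment; ΔTm is the shift relative to DMSO vehicle.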

Assay [3] addresses T3, PD-L1 protein on the surface of MC38-hPDL1 tumor cells (Homo sapiens, UniProt Q9NZQ7).
T3 construct: expressed in transfected cells; host or cells: MC38-hPDL1 (mouse colon cancer cells)
In words: Induction of endocytosis of PD-L1 on the surface of tumor cells (flow cytometry). Type of assay: cell-based. To be noted: 16 hours incubation; for Emax: MC38-hPDL1 cells, read-out: MC38 maximum endocytosis rate; for IC50: inducing endocytosis of PD-L1, MC38-hPDL1 cells, read-out: MC38 IC50. The method in brief: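 IC50 comes from nonlinear fits of endocytosis rate, calculated from the loss of surface PE-anti-CD274 flow signal relative to vehicle. Cells were MC38 mouse colon cancer cells engineered to express high human PD-L1. Compound exposure lasted 16 h at 37 °C, 5% CO2.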
Background: In flow cytometry, cells or beads pass a laser one at a time.

T2 sequence (Q9NZQ7 19-238 limits assumed): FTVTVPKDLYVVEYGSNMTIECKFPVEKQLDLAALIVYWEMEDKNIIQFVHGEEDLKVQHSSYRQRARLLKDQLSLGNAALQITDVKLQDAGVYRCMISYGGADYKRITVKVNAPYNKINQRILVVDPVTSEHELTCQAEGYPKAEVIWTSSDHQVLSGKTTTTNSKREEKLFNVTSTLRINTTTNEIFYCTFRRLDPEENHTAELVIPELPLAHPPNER
T1 sequence (Q9NZQ7 19-238): as the sequence (Q9NZQ7 19-238 limits assumed) above
T3 sequence (Q9NZQ7 19-290): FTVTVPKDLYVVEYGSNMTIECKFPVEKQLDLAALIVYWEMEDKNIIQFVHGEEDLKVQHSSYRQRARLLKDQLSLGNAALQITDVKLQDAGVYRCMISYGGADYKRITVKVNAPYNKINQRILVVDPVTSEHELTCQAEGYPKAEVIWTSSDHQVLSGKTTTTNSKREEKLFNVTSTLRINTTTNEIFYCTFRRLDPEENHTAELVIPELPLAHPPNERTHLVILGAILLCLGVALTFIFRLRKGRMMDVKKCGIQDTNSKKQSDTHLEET

For the compound `COc1nc(-c2cccc(-c3cccc(NC(=O)c4nc5c(n4C)CCN(C)C5)c3Cl)c2Cl)ccc1CNC[C@H](C)O` [Embodiment 127, (S)—N-(2,2′-Dichloro-3′-(5-(((2-hydroxypropyl)amino)methyl)-6-methoxypyridin-2-yl)-[1,1′-biphenyl]-3-yl)-1,5-dimethyl-4,5,6,7-tetrahydro-1H-imidazo[4,5-c]pyridine-2-carboxamide], the IC50 in assay [1] came out at 4.6 nM; in assay [3], 0.7 nM. For the same compound, the ΔTm at 10 µM in assay [2] came out at 18.7 °C. The Emax in assay [3] was 97%.
Consider `COc1nc(-c2cccc(-c3cccc(NC(=O)c4nc5c(n4C)CCN(C)C5)c3Cl)c2Cl)ccc1CN1CC2(CCC(=O)N2)C1` [Embodiment 126, N-(2,2′-Dichloro-3′-(6-methoxy-5-((6-carbonyl-2,5-diazaspiro[3.4]octan-2-yl)methyl)pyridin-2-yl)-[1,1′-biphenyl]-3-yl)-1,5-dimethyl-4,5,6,7-tetrahydro-1H-imidazo[4,5-c]pyridine-2-carboxamide], for which, in assay [1], the IC50 is 2 nM. Also, the thermal shift (ΔTm) at 10 µM in assay [2] was found to be 17.1 °C. Moreover, in assay [3], the Emax is 97% and the IC50 worked out at 1 nM.
On the same counts, the results for `COc1nc(-c2cccc(-c3cccc(NC(=O)c4nc5c(n4C)CCN(C)C5)c3Cl)c2Cl)ccc1CN1CC2(COC2)C1` [Embodiment 124, N-(3′-(5-((2-Oxa-6-azaspiro[3.3]heptan-6-yl)methyl)-6-methoxypyridin-2-yl)-2,2′-dichloro-[1,1′-biphenyl]-3-yl)-1,5-dimethyl-4,5,6,7-tetrahydro-1H-imidazo[4,5-c]pyridine-2-carboxamide] are 3.8 nM, 16.2 °C, 96% and 0.4 nM.
Regarding `COc1nc(-c2cccc(-c3cccc(NC(=O)c4nc5c(n4C)CCN(C)C5)c3Cl)c2Cl)ccc1CN1CC2(C1)CN(S(C)(=O)=O)C2` [Embodiment 192], the results for the IC50 in assay [1] and in assay [3] were 9 nM and 0.3 nM, respectively. Moreover, the ΔTm at 10 µM in assay [2] is 14 °C. In assay [3], the Emax is 97%.
Consider `COc1nc(-c2cccc(-c3cccc(NC(=O)c4nc5c(n4C)CCN(C)C5)c3Cl)c2Cl)ccc1CN1CC2(CC(NC(C)=O)C2)C1` [Embodiment 234, N-(3′-(5-((6-Acetylamino-2-azaspiro[3.3]heptan-2-yl)methyl)-6-methoxypyridin-2-yl)-2,2′-dichloro-[1,1′-biphenyl]-3-yl)-1,5-dimethyl-4,5,6,7-tetrahydro-1H-imidazo[4,5-c]pyridine-2-carboxamide], for which the IC50 in assay [1] turned out to be 2.5 nM. Also, the thermal shift (ΔTm) at 10 µM in assay [2] came out at 15.6 °C. In addition, the Emax in assay [3] came to 97%.
